For 22 compounds, Percent BCL6 remaining results are on record in patent publication US12404239B2, “Modulators of BCL6 as ligand directed degraders” (Celgene Corporation, priority 2022, dated 2025).

This assay has as its target T1, BCL6 (Homo sapiens, UniProt P41182).
T1 construct: HiBiT-tag knocked into endogenous BCL6 locus using CRISPR; endogenous in cells; host or cells: DHL-4_BCL6_HiBiT cells (CRISPR knock-in)
Put plainly: BCL6_HiBiT degradation assay (2 h). The class given is cell-based. The conditions noted are these: DHL-4_BCL6_HiBiT cells, read-out: YCon (% remaining maximal effect). The procedure, abridged: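 DHL-4 cells carrying CRISPR HiBiT knock-in at endogenous BCL6, treated 2 h at 37 °C with 10-point 3-fold dilutions from 1-10 μM. BCL6 level read by Nano-Glo HiBiT lytic luminescence normalized to DMSO; four-parameter fit gives degradation EC50 and Yconstant (% remaining at maximal effect).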
`CC1CN(c2ccc3c(C4CCC(=O)NC4=O)nn(C)c3c2)C(=O)CN1c1ncc(Cl)c(Nc2ccc3c(c2)CC(=O)N3C)n1` (stereo not shown) [Example 39, 3-(6-(4-(5-chloro-4-((1-methyl-2-oxoindolin-5-yl)amino)pyrimidin-2-yl)-5-methyl-2-oxopiperazin-1-yl)-1-methyl-1H-indazol-3-yl)piperidine-2,6-dione]: the Percent BCL6 remaining at maximal degradation (Ycon) is over 60%. The value for `CN1C(=O)Cc2cc(Nc3nc(NC4CCN(c5ccc6c(C7CCC(=O)NC7=O)nn(C)c6c5)CC4)ncc3Cl)ccc21` (stereo not shown) [Example 40, 3-(6-(4-((5-Chloro-4-((1-methyl-2-oxoindolin-5-yl)amino)pyrimidin-2-yl)amino)piperidin-1-yl)-1-methyl-1H-indazol-3-yl)piperidine-2,6-dione] was over 60%; that for `Cn1nc(C2CCC(=O)NC2=O)c2ccc(NC3CCN(c4ncc(Cl)c(Nc5ccc6c(c5)CC(=O)N6CCO)n4)CC3)cc21` (stereo not shown) [Example 41, 3-[6-[[1-[5-chloro-4-[[1-(2-hydroxyethyl)-2-oxo-indolin-5-yl]amino]pyrimidin-2-yl]-4-piperidyl]amino]-1-methyl-indazol-3-yl]piperidine-2,6-dione] was 20 to 60%. The value for `CN1C(=O)Cc2cc(Nc3nc(N4CC[C@H](Nc5ccc6c(C7CCC(=O)NC7=O)nn(C)c6c5)[C@@H](F)C4)ncc3Cl)ccc21` (stereo partly drawn) [Example 42, 3-(6-(((3S,4S)-1-(5-chloro-4-((1-methyl-2-oxoindolin-5-yl)amino)pyrimidin-2-yl)-3-fluoropiperidin-4-yl)amino)-1-methyl-1H-indazol-3-yl)piperidine-2,6-dione] was 20 to 60%; that for `CN1C(=O)Cc2cc(Nc3nc(N4CC[C@H](Nc5ccc6c(C7CCC(=O)NC7=O)nn(C)c6c5)[C@H](F)C4)ncc3Cl)ccc21` (stereo partly drawn) [Example 43, 3-(6-(((3R,4S)-1-(5-Chloro-4-((1-methyl-2-oxoindolin-5-yl)amino)pyrimidin-2-yl)-3-fluoropiperidin-4-yl)amino)-1-methyl-1H-indazol-3-yl)piperidine-2,6-dione] was over 60%; that for `CN1C(=O)Cc2cc(Nc3nc(N4CC[C@@H](Nc5ccc6c(C7CCC(=O)NC7=O)nn(C)c6c5)[C@@H](F)C4)ncc3Cl)ccc21` (stereo partly drawn) [Example 44, 3-(6-(((3S,4R)-1-(5-chloro-4-((1-methyl-2-oxoindolin-5-yl)amino)pyrimidin-2-yl)-3-fluoropiperidin-4-yl)amino)-1-methyl-1H-indazol-3-yl)piperidine-2,6-dione] was over 60%. `CN1C(=O)Cc2cc(Nc3nc(N4CC[C@@H](Nc5ccc6c(C7CCC(=O)NC7=O)nn(C)c6c5)[C@H](F)C4)ncc3Cl)ccc21` (stereo partly drawn) [Example 45, 3-(6-(((3R,4R)-1-(5-chloro-4-((1-methyl-2-oxoindolin-5-yl)amino)pyrimidin-2-yl)-3-fluoropiperidin-4-yl)amino)-1-methyl-1H-indazol-3-yl)piperidine-2,6-dione]: the Percent BCL6 remaining at maximal degradation (Ycon) fell in the range of 20 to 60%. Regarding `CN1C(=O)Cc2cc(Nc3nc(N4CC[C@@H](N(C)c5ccc6c(C7CCC(=O)NC7=O)nn(C)c6c5)[C@H](F)C4)ncc3Cl)ccc21` (stereo partly drawn) [Example 46, 3-[6-[[(3R,4R)-1-[5-Chloro-4-[(1-methyl-2-oxo-indolin-5-yl)amino]pyrimidin-2-yl]-3-fluoro-4-piperidyl]-methyl-amino]-1-methyl-indazol-3-yl]piperidine-2,6-dione], the Percent BCL6 remaining at maximal degradation (Ycon) was over 60%.

Consider `CC1CCN(c2ncc(Cl)c(Nc3ccc4c(c3)CC(=O)N4C)n2)CCC1Nc1ccc2c(C3CCC(=O)NC3=O)nn(C)c2c1` (stereo not shown) [Example 47, 3-(6-((1-(5-chloro-4-((1-methyl-2-oxoindolin-5-yl)amino)pyrimidin-2-yl)-5-methylazepan-4-yl)amino)-1-methyl-1H-indazol-3-yl)piperidine-2,6-dione], for which the Percent BCL6 remaining at maximal degradation (Ycon) is over 60%.

As for `CN1C(=O)Cc2cc(Nc3nc(N4CCC(Nc5ccc6c(C7CCC(=O)NC7=O)nn(C)c6c5)CC4)ncc3Cl)ccc21` (stereo not shown) [Example 52, 3-(6-((1-(5-chloro-4-((1-methyl-2-oxoindolin-5-yl)amino)pyrimidin-2-yl)piperidin-4-yl)amino)-1-methyl-1H-indazol-3-yl)piperidine-2,6-dione], the Percent BCL6 remaining at maximal degradation (Ycon) lay within 20 to 60%. The value for `CN1C(=O)Cc2cc(Nc3nc(N4CC[C@@H](Nc5ccc6c(C7CCC(=O)NC7=O)nn(C)c6n5)[C@H](O)C4)ncc3Cl)ccc21` (stereo partly drawn) [Example 55, 3-(6-(((3R,4R)-1-(5-chloro-4-((1-methyl-2-oxoindolin-5-yl)amino)pyrimidin-2-yl)-3-hydroxypiperidin-4-yl)amino)-1-methyl-1H-pyrazolo[3,4-b]pyridin-3-yl)piperidine-2,6-dione] was 20 to 60%; that for `C[C@@H]1CN(c2ncc(Cl)c(Nc3ccc4c(c3)C(F)(F)C(=O)N4C)n2)CC[C@H]1Nc1ccc2c(C3CCC(=O)NC3=O)nn(C)c2c1` (stereo partly drawn) [Example 56, 3-(6-(((3R,4R)-1-(5-chloro-4-((3,3-difluoro-1-methyl-2-oxoindolin-5-yl)amino)pyrimidin-2-yl)-3-methylpiperidin-4-yl)amino)-1-methyl-1H-indazol-3-yl)piperidine-2,6-dione] was under 20%; that for `CN1C(=O)Cc2cc(Nc3nc(N4CC[C@@H](Nc5ccc6c(C7CCC(=O)NC7=O)nn(C)c6c5)[C@@H](CO)C4)ncc3Cl)ccc21` (stereo partly drawn) [Example 57, 3-[6-[[(3S,4R)-1-[5-Chloro-4-[(1-methyl-2-oxo-indolin-5-yl)amino]pyrimidin-2-yl]-3-(hydroxymethyl)-4-piperidyl]amino]-1-methyl-indazol-3-yl]piperidine-2,6-dione] was over 60%. With `CN1C(=O)Cc2cc(Nc3nc(N4CC[C@H](Nc5ccc6c(C7CCC(=O)NC7=O)nn(C)c6c5)[C@H](CO)C4)ncc3Cl)ccc21` (stereo partly drawn) [Example 58, 3-(6-(((3R,4S)-1-(5-chloro-4-((1-methyl-2-oxoindolin-5-yl)amino)pyrimidin-2-yl)-3-(hydroxymethyl)piperidin-4-yl)amino)-1-methyl-1H-indazol-3-yl)piperidine-2,6-dione] the figure was 20 to 60%; with `CN1C(=O)Cc2cc(Nc3nc(N(C)C4CCN(c5cnc6c(C7CCC(=O)NC7=O)nn(C)c6c5)CC4)ncc3Cl)ccc21` (stereo not shown) [Example 59, 3-(6-(4-((5-chloro-4-((1-methyl-2-oxoindolin-5-yl)amino)pyrimidin-2-yl)(methyl)amino)piperidin-1-yl)-1-methyl-1H-pyrazolo[4,3-b]pyridin-3-yl)piperidine-2,6-dione], over 60%; with `CN1C(=O)Cc2cc(Nc3nc(N(C)C4CCN(c5cc6c(cn5)c(C5CCC(=O)NC5=O)nn6C)CC4)ncc3Cl)ccc21` (stereo not shown) [Example 60, 3-(6-(4-((5-chloro-4-((1-methyl-2-oxoindolin-5-yl)amino)pyrimidin-2-yl)(methyl)amino)piperidin-1-yl)-1-methyl-1H-pyrazolo[4,3-c]pyridin-3-yl)piperidine-2,6-dione], over 60%. For `C[C@@H]1CN(c2ncc(Cl)c(Nc3ccc4c(c3)N(C)C(=O)C4)n2)CC[C@H]1Nc1ccc2c(C3CCC(=O)NC3=O)nn(C)c2c1` (stereo partly drawn) [Example 61, 3-(6-(((3R,4R)-1-(5-chloro-4-((1-methyl-2-oxoindolin-6-yl)amino)pyrimidin-2-yl)-3-methylpiperidin-4-yl)amino)-1-methyl-1H-indazol-3-yl)piperidine-2,6-dione], the Percent BCL6 remaining at maximal degradation (Ycon) was under 20%. In the case of `C[C@@H]1CN(c2ncc(Cl)c(Nc3ccc4c(c3)CC(=O)N4C)n2)CC[C@H]1Nc1ccc2c(C3CCC(=O)NC3=O)nn(C)c2n1` (stereo partly drawn) [Example 62, 3-(6-(((3R,4R)-1-(5-chloro-4-((1-methyl-2-oxoindolin-5-yl)amino)pyrimidin-2-yl)-3-methylpiperidin-4-yl)amino)-1-methyl-1H-pyrazolo[3,4-b]pyridin-3-yl)piperidine-2,6-dione], the Percent BCL6 remaining at maximal degradation (Ycon) was under 20%. With `Cn1nc(C2CCC(=O)NC2=O)c2ccc(NC3CCN(c4ncc(Cl)c(Nc5ccc6c(c5)CC(=O)N6)n4)CC3)cc21` (stereo not shown) [Example 63, 3-(6-((1-(5-chloro-4-((2-oxoindolin-5-yl)amino)pyrimidin-2-yl)piperidin-4-yl)amino)-1-methyl-1H-indazol-3-yl)piperidine-2,6-dione] the figure was over 60%. `CN1C(=O)Cc2cc(Nc3nc(N4CCC(Nc5ccc6c(C7CCC(=O)NC7=O)nn(C)c6c5)C(F)(F)C4)ncc3Cl)ccc21` (stereo not shown) [Example 64, 3-(6-((1-(5-Chloro-4-((1-methyl-2-oxoindolin-5-yl)amino)pyrimidin-2-yl)-3,3-difluoropiperidin-4-yl)amino)-1-methyl-1H-indazol-3-yl)piperidine-2,6-dione]: the Percent BCL6 remaining at maximal degradation (Ycon) was over 60%. The value for `CN1C(=O)Cc2cc(Nc3nc(N4CCC(Nc5ccc6c(N7CCC(=O)NC7=O)nn(C)c6c5)C(F)(F)C4)ncc3Cl)ccc21` (stereo not shown) [Example 65, 1-(6-((1-(5-chloro-4-((1-methyl-2-oxoindolin-5-yl)amino)pyrimidin-2-yl)-3,3-difluoropiperidin-4-yl)amino)-1-methyl-1H-indazol-3-yl)dihydropyrimidine-2,4(1H,3H)-dione] was over 60%. The value for `CN1C(=O)Cc2cc(Nc3nc(N4CC[C@@H](Nc5ccc6c(C7CCC(=O)NC7=O)nn(C)c6c5)C(F)(F)C4)ncc3Cl)ccc21` (stereo partly drawn) [Example 66, 3-(6-(((R)-1-(5-chloro-4-((1-methyl-2-oxoindolin-5-yl)amino)pyrimidin-2-yl)-3,3-difluoropiperidin-4-yl)amino)-1-methyl-1H-indazol-3-yl)piperidine-2,6-dione] was over 60%.
